Tested on: Plasmodium yoelii yoelii
Assay: Antimalarial activity against liver stages of Plasmodium yoelii yoelii
Type: functional, organism-based
Settings: not given

SMILES | IC50
CC(CCc1ccc(O)cc1)NCCc1ccc(O)c(O)c1 (configuration not stated) [DOBUTAMINE] | 0.0037 µM
CC[C@]1(O)C[C@@H]2CN(CCc3c([nH]c4ccccc34)[C@@](C(=O)OC)(c3cc4c(cc3OC)N(C)[C@H]3[C@@](O)(C(=O)OC)[C@H](OC(C)=O)[C@]5(CC)C=CCN6CC[C@]43[C@@H]65)C2)C1 [VINBLASTINE] | 7.95 µM
CC(N)C12CC3CC(CC(C3)C1)C2 (configuration not stated) [RIMANTADINE] | 0.0356 µM
CC[C@H](C)[C@H](NC(=O)[C@H]([C@@H](C)CC)N(C)C(C)=O)C(=O)N[C@H](C(=O)N[C@@H](CC(C)C)C(=O)[C@@]1(C)CO1)[C@@H](C)O [EPOXOMYCIN] | 3.95 µM
CC(C)Nc1cccnc1N1CCN(C(=O)c2cc3cc(NS(C)(=O)=O)ccc3[nH]2)CC1 [DELAVIRDINE] | 0.000846 µM
COCC(=O)O[C@]1(CCN(C)CCCc2nc3ccccc3[nH]2)CCc2cc(F)ccc2[C@@H]1C(C)C [MIBEFRADIL] | 0.000873 µM
C=CC(C)(C)c1cc(/C=C/C(=O)c2ccc(O)cc2)c(OC)cc1O [LICOAGROCHACONE A] | 0.000927 µM

Tested on: Plasmodium yoelii
Assay: Antimalarial activity against liver stages of Plasmodium yoelii 265 BY infected in Swiss mouse after 48 hrs by fluorescence microscopy
Type: functional, organism-based
Settings: not given

SMILES | IC50
COc1cc(C)cc(OC)c1OC(C)[C@@H](O)c1ccc2c(c1)OC(F)(F)O2 (mixture of isomers; 145) | 19 µM
COc1cc(C)cc(OC)c1OC(C)[C@@H](O)c1ccc2c(c1)OC(F)(F)O2 (mixture of isomers; 146) | 5.62 µM
COc1cccc(OC)c1OC(C)[C@@H](O)c1ccc2c(c1)OC(F)(F)O2 (mixture of isomers; 144) | 20.2 µM

Same assay, conditions: Plasmodium yoelii, 265 BY, 48 h

SMILES | IC50
COc1cc([C@H](O)[C@@H](C)Oc2c(OC)cc(C)cc2OC)cc(OC)c1OC | 0.0045 µM
COc1cc([C@H](O)[C@@H](C)Oc2c(OC)cc(-c3ccccc3)cc2OC)cc(OC)c1OC | 3.61 µM
COc1cc([C@H](O)[C@H](C)Oc2c(OC)cc(C)cc2OC)cc(OC)c1OC | 50.1 µM
COc1cc([C@H](O)[C@H](C)Oc2c(OC)cccc2OC)cc(OC)c1OC | 28.6 µM
COc1cc([C@H](O)[C@@H](C)Oc2c(OC)cccc2OC)cc(OC)c1OC | 2.52 µM
COc1cc([C@H](O)[C@H](C)Oc2c(OC)cc(-c3ccccc3)cc2OC)cc(OC)c1OC | 3.54 µM
COc1cccc(OC)c1OC(C)[C@@H](O)c1ccc2c(c1)OC(F)(F)O2 (mixture of isomers; 143) | 20.1 µM

Tested on: Plasmodium cynomolgi
Assay: Antimalarial activity against Plasmodium cynomolgi M infected in rhesus monkey administered as po qd for 7 days
Type: functional
Settings: in Macaca mulatta, 168 h

SMILES | ED50
COc1cc(NC(C)CCCN)c2nc(OCc3ccc(F)cc3)ccc2c1 (configuration not stated) | 0.35 mg/kg
COc1cc(NC(C)CCCN)c2nc(C)ccc2c1Oc1cccc(C(F)(F)F)c1 (configuration not stated) | 0.36 mg/kg
C=Cc1ccnc2c(NC(C)CCCN)cc(OC)cc12 (configuration not stated) | 0.5 mg/kg
COc1cc(NC(C)CCCN)c2ncccc2c1OC (configuration not stated) | 0.44 mg/kg
CCN(CC)CCCNc1cc(OC)cc2c(C)ccnc12 | 0.51 mg/kg
COc1cc(NC(C)CCCN)c2ncccc2c1 (configuration not stated) [PRIMAQUINE] | 0.38 mg/kg
CCc1ccnc2c(NC(C)CCCN)cc(OC)cc12 (configuration not stated) | 0.45 mg/kg
COc1cc(NCCCC(C)N)c2ncccc2c1Oc1cccc(C(F)(F)F)c1 (configuration not stated) | 0.5 mg/kg
COc1cc(NC(C)CCCN)c2nc(C)ccc2c1F (configuration not stated) | 0.21 mg/kg
COc1cc(NC(C)CCCN)c2ncccc2c1Oc1ccc(F)cc1 (configuration not stated) | 0.23 mg/kg
CCC(CCCN)Nc1cc(OC)cc2c(C)ccnc12 (configuration not stated) | 0.074 mg/kg
COc1cc(NC(C)CCCN)c2ncccc2c1Oc1cccc(C(F)(F)F)c1 (configuration not stated) | 0.25 mg/kg
COc1cc(NC(C)CCCN)c2nccc(C)c2c1F (configuration not stated) | 0.36 mg/kg
CCOc1c(OC)cc(NC(C)CCCN)c2ncccc12 (configuration not stated) | 0.18 mg/kg
COc1cc(NC(C)CCCN)c2nc(C)ccc2c1Oc1ccc(F)cc1 (configuration not stated) | 0.22 mg/kg
COc1cc(NCCCC(C)N)c2nccc(C)c2c1 (configuration not stated) | 0.11 mg/kg
COc1cc(NC(C)CCCN)c2ncccc2c1C(=O)C(F)(F)F (configuration not stated) | 0.44 mg/kg
COc1cc(NC(C)CCCN)c2nc(C)ccc2c1 (configuration not stated) | 0.38 mg/kg

SMILES | ED50
CCN(CC)CCCNc1cc(OC)cc2c(C)cc(C)nc12 | 0.36 mg/kg
COc1cc(NCCCCCNC(C)C)c2nccc(C)c2c1 | 0.5 mg/kg
CCN(CC)CCCCCCNc1cc(OC)cc2c(C)ccnc12 [SITAMAQUINE] | 0.35 mg/kg
COc1cc(NC(C)CCCNC(C)C)c2nccc(C)c2c1 (configuration not stated) | 0.32 mg/kg
COc1cc(NCCCC(C)N)c2nc(C)ccc2c1 (configuration not stated) | 0.21 mg/kg
COc1cc(NC(C)CCCN)c2nccc(C)c2c1 (configuration not stated) | 0.2 mg/kg
COc1cc(NCCCCC(C)N)c2nccc(C)c2c1 (configuration not stated) | 0.12 mg/kg
COc1cc(NC(C)CCCN)c2nc(N)ccc2c1 (configuration not stated) | 0.36 mg/kg
CCC(N)CCCNc1cc(OC)cc2c(C)ccnc12 (configuration not stated) | 0.48 mg/kg
COc1cc(NC(C)CCCN)c2nc(OCc3ccc(C(F)(F)F)cc3)ccc2c1 (configuration not stated) | 0.5 mg/kg
COc1cc(NC(C)CCCCNC(C)C)c2nccc(C)c2c1 (configuration not stated) | 0.35 mg/kg
COc1cc(NC(C)CCCN)c2nccc(C)c2c1OC (configuration not stated) | 0.098 mg/kg
CCN(CC)CCCCC(C)Nc1cc(OC)cc2c(C)ccnc12 (configuration not stated) | 0.23 mg/kg
COc1cc(NC(C)CCCN)c2nc(C)cc(C)c2c1 (configuration not stated) | 0.36 mg/kg
COc1cc(NC(C)CCCN)c2nc(C)ccc2c1Oc1ccc(Cl)cc1 (configuration not stated) | 0.19 mg/kg
COc1cc(NCCC(C)N)c2nccc(C)c2c1OC (configuration not stated) | 0.12 mg/kg
COc1cc(NC(C)CCCN)c2nccc(C)c2c1Oc1cccc(C(F)(F)F)c1 (configuration not stated) | 0.11 mg/kg

Tested on: Plasmodium berghei
Assay: Antimalarial activity against liver stages of Plasmodium berghei in human HepG2 cells assessed as growth inhibition at 10 ug/mL
Type: functional
Settings: read-out: GI

SMILES | inhibition of growth at 10 µg/mL
COc1cccc2c(-c3ccc4c(c3O)[C@@H](C)N[C@H](C)C4)c(C)cc(OC)c12 [DIONCOPHYLLINE A] | 67.5%
COc1c2c(cc(O)c1-c1c(C)cc(OC)c3c(OC)cccc13)C[C@@H](C)N=C2C [ANCISTROBARTERINE A] | 51.6%
COc1ccc(-c2c(C)cc(OC)c3c(O)cccc23)c2c1[C@@H](C)N(C=O)[C@H](C)C2 | 98.3%
COc1cc(C)c(-c2ccc(OC(=O)c3ccccc3)c3c2C[C@@H](C)N(C=O)[C@@H]3C)c2cccc(O)c12 | 52.7%
COc1c(-c2c(C)cc(OC)c3c(O)cccc23)ccc2c1[C@@H](C)N[C@H](C)C2 | 48.8%
COc1c(C)nc(C)c2c(OC)c(-c3c(C)cc(OC)c4c(OC)cccc34)ccc12 [DIONCOPHYLLACINE A] | 41.9%

Tested on: Plasmodium yoelii
Assay: Antimalarial activity against Plasmodium yoelii infected in CD-1 mouse assessed as efficacy at 160 mg/kg, ip
Type: functional
Settings: route intraperitoneal

SMILES | Efficacy
C[C@H]1c2cccc(O)c2C(=O)C2=C(O)[C@]3(O)C(=O)C(C(N)=O)=C(O)[C@@H](N(C)C)[C@@H]3[C@@H](O)[C@@H]21.O [DOXYCYCLINE] | 100%

Tested on: Plasmodium yoelii
Assay: Antimalarial activity against Plasmodium yoelii infected in CD-1 mouse assessed as efficacy at 40 mg/kg, ip
Type: functional
Settings: route intraperitoneal

SMILES | Efficacy
C[C@H]1c2cccc(O)c2C(=O)C2=C(O)[C@]3(O)C(=O)C(C(N)=O)=C(O)[C@@H](N(C)C)[C@@H]3[C@@H](O)[C@@H]21.O [DOXYCYCLINE] | 40%

Tested on: Plasmodium berghei
Assay: Antimalarial activity against liver stages of Plasmodium berghei assessed as inhibition of cytochrome bc1 complex
Type: functional, organism-based
Settings: not given

SMILES | IC50
Cc1cccc2c1C(=O)C(O)=C(C[C@H](C)CCCCCC(F)(F)F)C2=O | 4.45 µM
C[C@H](CCCCCC(F)(F)F)CC1=C(O)C(=O)c2ccccc2C1=O | 0.0171 µM
CCCCCC[C@@H](C)CC1=C(O)C(=O)c2ccccc2C1=O | 0.0962 µM
CCCCCC[C@@H](C)CC1=C(O)C(=O)c2c(C)cccc2C1=O | 0.246 µM

Tested on: Plasmodium vivax
Assay: Antimalarial activity against Plasmodium vivax assessed as effect on cure rate after 28 days
Type: functional
Settings: not given

SMILES | Activity
CCC[C@@H]1C[C@@H](C(=O)N[C@@H]([C@H]2O[C@H](SC)[C@H](O)[C@@H](O)[C@H]2O)[C@H](C)Cl)N(C)C1 [CLINDAMYCIN] | 56%
CN(C)[C@@H]1C(O)=C(C(N)=O)C(=O)[C@@]2(O)C(O)=C3C(=O)c4c(O)cccc4[C@@](C)(O)[C@H]3C[C@@H]12 [TETRACYCLINE] | 56%
C[C@H]1c2cccc(O)c2C(=O)C2=C(O)[C@]3(O)C(=O)C(C(N)=O)=C(O)[C@@H](N(C)C)[C@@H]3[C@@H](O)[C@@H]21.O [DOXYCYCLINE] | 56%

Tested on: Plasmodium yoelii
Assay: Antimalarial activity against Plasmodium yoelii infected in mouse assessed as protection against parasitic infection at 160 mg/kg, po
Type: functional
Settings: not given

SMILES | Activity
CC(C)N1C(=O)C(=O)N=C1N/C(=N\C(=O)OC(C)(C)C)Nc1ccc(Cl)c(Cl)c1 | 100%
CCOC(=O)/N=C(\NC1=NC(=O)C(=O)N1C(C)C)Nc1ccc(Cl)c(Cl)c1 | 100%

Tested on: Plasmodium yoelii
Assay: Antimalarial activity against liver stages of Plasmodium yoelii after 96 hrs
Type: functional, organism-based
Settings: Plasmodium yoelii, 96 h

SMILES | IC50
C[C@]1(C(=O)O)CSC(c2ncccc2O)=N1 [DESFERRITHIOCIN] | 10 µM
CC(=O)N(O)CCCCCNC(=O)CCC(=O)N(O)CCCCCNC(=O)CCC(=O)N(O)CCCCCN [DEFEROXAMINE] | 20 µM

Tested on: Plasmodium falciparum
Assay: Antimalarial activity against liver stages of Plasmodium falciparum after 96 hrs
Type: functional, organism-based
Settings: not given

SMILES | IC50
C[C@]1(C(=O)O)CSC(c2ncccc2O)=N1 [DESFERRITHIOCIN] | 2.9 µM
CC(=O)N(O)CCCCCNC(=O)CCC(=O)N(O)CCCCCNC(=O)CCC(=O)N(O)CCCCCN [DEFEROXAMINE] | 3.4 µM

Tested on: Plasmodium yoelii
Assay: Antimalarial activity against liver stages of Plasmodium yoelii 17XNL expressing GFP infected in human HepG2 cells transfected with CD81 assessed as growth inhibition of hepatic parasite after 40 hrs by flow cytometry
Type: functional, organism-based
Settings: not given

SMILES | IC50
Oc1c(Cl)cc(Cl)c(Cl)c1Cc1c(O)c(Cl)cc(Cl)c1Cl [HEXACHLOROPHENE] | 4 µM
CO[C@H]1/C=C/O[C@@]2(C)Oc3c(C)c(O)c4c(O)c(c(/C=N/N5CCN(C)CC5)c(O)c4c3C2=O)NC(=O)/C(C)=C\C=C\[C@H](C)[C@H](O)[C@@H](C)[C@@H](O)[C@@H](C)[C@H](OC(C)=O)[C@@H]1C [RIFAMPIN] | 22.2 µM

Tested on: Plasmodium yoelii
Assay: Antimalarial activity against liver stages of Plasmodium yoelii
Type: functional, organism-based
Settings: not given

SMILES | IC50
CN1CN(Cc2ccccc2)C(=O)N[C@@H](Cc2ccccc2)C1=O | > 200 µM
CN1CNC(=O)N[C@H](Cc2ccccc2)C1=O | > 200 µM

Tested on: Plasmodium falciparum
Assay: Antimalarial activity against liver stages of Plasmodium falciparum NF54 infected in human HepG2 cells after 6 days by fluorescence microscopy
Type: functional, organism-based
Settings: NF54, HepG2, 144 h

SMILES | IC50
COc1cc([C@H](O)[C@@H](C)Oc2c(OC)cc(C)cc2OC)cc(OC)c1OC | 0.38 µM
COc1cc([C@H](O)[C@@H](C)Oc2c(OC)cc(-c3ccccc3)cc2OC)cc(OC)c1OC | 0.007 µM
COc1cc([C@H](O)[C@H](C)Oc2c(OC)cc(-c3ccccc3)cc2OC)cc(OC)c1OC | 0.02 µM

Tested on: Plasmodium berghei
Assay: Antimalarial activity against liver stages of Plasmodium berghei
Type: functional, organism-based
Settings: not given

SMILES | IC50
COc1cc(NC(C)CCCN)c2ncccc2c1 (configuration not stated) [PRIMAQUINE] | 13 µM
COc1cc(NC(C)CCCNCc2ccc(CO[C@H]3O[C@@H]4O[C@@]5(C)CC[C@H]6[C@H](C)CCC([C@H]3C)[C@@]46OO5)cc2)c2ncccc2c1 (some centres not stated) | 0.155 µM

Source: ChEMBL document CHEMBL2086285, “Targeting the liver stage of malaria parasites: a yet unmet goal” (J Med Chem, 2012)
